Earlier results as cited in patent US12576064B2, “Urolithin gummy (pectin) formulations” (Amazentis SA, priority 2023, dated 2026).

System: myotubes
Settings: in vitro

Structure (SMILES)	mean diameter of myotubes
O=c1oc2cc(O)ccc2c2ccc(O)cc12 [Urolithin A]	not seen
O=c1oc2cc(O)ccc2c2ccccc12 [Urolithin B]	increased
